Test results published in paper PMC7031696 (Cell chemical biology, 2019).
Read-outs that look alike come from different tables or passages of the source.

Key:
[1] = test system: Plasmodium falciparum 3D7-A10 parasites; assay: Stage specificity assay (8-h exposure of synchronized stages, IC50^8h); assay type: cell-based; conditions: for IC50: Plasmodium falciparum
[2] = test system: asynchronous 3D7-A10 parasite cultures; assay: Standard 72-h exposure asexual blood stage susceptibility assay (IC50^72h); assay type: cell-based, Plasmodium falciparum; conditions: Plasmodium falciparum, 3D7, 72 h, read-out: Overall (72hr assay) Mean IC50 (IC50^72h)
[3] = test system: 3D7-MR4 trophozoite parasite-infected RBCs; assay: Metabolomic profiling (hydrophilic metabolite changes, UHPLC-MS); assay type: cell-based, Plasmodium falciparum

CN(C(=O)c1cn2c(-c3ccc(C(F)(F)F)cc3)cnc2cn1)c1ccc(C#N)cc1 [KAI407, reference compound]
Ratio lowest IC50 8hr/IC50 72hr ([1]; 3D7-A10): 3.9
overall activity profile (stages on which active) ([1]; 8-h exposures): activity against only schizonts
IC50 ([1]; 3D7, read-out: Early rings Mean IC50, shift 2, 8-h exposure 0–8 hr, line 'shift 2'): 16.3 µM
IC50 ([1]; 3D7, read-out: Early trophozoites Mean IC50, shift 2, 8-h exposure 16–24 hr, line 'shift 2' of biphasic dose response): 5.14 µM
IC50 ([1]; 3D7, read-out: Late rings Mean IC50, shift 2, 8-h exposure 8–16 hr, line 'shift 2'): 14 µM
IC50 ([1]; 3D7, read-out: Late trophozoites Mean IC50, shift 1, 8-h exposure 24–32 hr, line 'shift 1' of biphasic dose response): 0.161 µM
IC50 ([1]; 3D7, read-out: Late trophozoites Mean IC50, shift 2, 8-h exposure 24–32 hr, line 'shift 2' of biphasic dose response): 13.4 µM
IC50 ([1]; 3D7, read-out: Schizonts Mean IC50, shift 2, 8-h exposure 32–40 hr, line 'shift 2'): 0.0462 µM
Stage of peak activity (Figure 6) ([1]; period when the parasite was most susceptible (lowest IC50^8h)): schizonts
IC50 [2]: 0.0118 µM
Log2(fold changes) 3-phosphoglycerate ([3]; metabolite 3-phosphoglycerate, log2 fold change): -0.5235
Log2(fold changes) 4-Pyridoxic acid ([3]; metabolite 4-Pyridoxic acid, log2 fold change): 0.0000
Log2(fold changes) 4-aminobutyrate ([3]; metabolite 4-aminobutyrate, log2 fold change): -0.0697
Log2(fold changes) 4-phosphopantetheine ([3]; metabolite 4-phosphopantetheine, log2 fold change): -0.3259
Log2(fold changes) 4-phosphopantothenate ([3]; metabolite 4-phosphopantothenate, log2 fold change): -0.0998
Log2(fold changes) 5-aminopentanoic acid ([3]; metabolite 5-aminopentanoic acid, log2 fold change): 0.0000
Log2(fold changes) 5-methyl-THF ([3]; metabolite 5-methyl-THF, log2 fold change): 0.0000
Log2(fold changes) 5-phosphoribosyl-1-pyrophosphate ([3]; metabolite 5-phosphoribosyl-1-pyrophosphate, log2 fold change): 0.0000
Log2(fold changes) 6-phospho-D-gluconate ([3]; metabolite 6-phospho-D-gluconate, log2 fold change): -0.0493
Log2(fold change) HVDD ([3]; metabolite HVDD): 0.0000
Log2(fold change) Hydroxyisocaproic acid ([3]; metabolite Hydroxyisocaproic acid): 0.0000
Log2(fold change) IDP ([3]; metabolite IDP): -0.1372
Log2(fold change) IMP ([3]; metabolite IMP): 0.0398
Log2(fold change) Inositol ([3]; metabolite Inositol): 0.0000
Log2(fold change) Isopentyl-PP ([3]; metabolite Isopentyl-PP): 0.0000
Log2(fold change) L-arginino-succinate ([3]; metabolite L-arginino-succinate): 0.0109
Log2(fold change) LD ([3]; metabolite LD): 0.0079
Log2(fold change) Myristoyl/tetradecanoyl-CoA ([3]; metabolite Myristoyl/tetradecanoyl-CoA): 0.0000
Log2(fold change) N-Acetyl-L-alanine ([3]; metabolite N-Acetyl-L-alanine): 0.0065
Log2(fold change) N-acetyl-L-ornithine ([3]; metabolite N-acetyl-L-ornithine): -0.3674
Log2(fold change) N-acetyl-glucosamine-1/6-phosphate ([3]; metabolite N-acetyl-glucosamine-1/6-phosphate): -0.2974
Log2(fold change) N-acetyl-glutamate ([3]; metabolite N-acetyl-glutamate): -0.1156
Log2(fold change) N-acetyl-glutamine ([3]; metabolite N-acetyl-glutamine): -0.4039
Log2(fold change) N-carbamoyl-L-aspartate ([3]; metabolite N-carbamoyl-L-aspartate): -0.0890
Log2(fold change) NAD+ ([3]; metabolite NAD+): -0.0062
Log2(fold change) NADH ([3]; metabolite NADH): 0.3557
Log2(fold change) NADP+ ([3]; metabolite NADP+): 0.1126
Log2(fold change) NADPH ([3]; metabolite NADPH): 0.1591
Log2(fold change) O-acetyl-L-serine ([3]; metabolite O-acetyl-L-serine): 0.0000
Log2(fold change) Octoluse 8/1P ([3]; metabolite Octoluse 8/1P): -0.0134
Log2(fold change) Octoluse Bisphosphate ([3]; metabolite Octoluse Bisphosphate): -0.3290
Log2(fold change) PD ([3]; metabolite PD): -0.6855
Log2(fold change) PE ([3]; metabolite PE): -0.6905
Log2(fold change) PEE ([3]; metabolite PEE): -0.7885
Log2(fold change) PEEK ([3]; metabolite PEEK): -0.8519
Log2(fold change) PVNF ([3]; metabolite PVNF): -0.9231
Log2(fold change) Pyroglutamic acid ([3]; metabolite Pyroglutamic acid): -0.1373
Log2(fold change) Pyrophosphate ([3]; metabolite Pyrophosphate): 0.0000
Log2(fold change) Ribose-5-phosphate ([3]; metabolite Ribose-5-phosphate): -0.3312
Log2(fold change) S-adenosyl-L-homocysteine ([3]; metabolite S-adenosyl-L-homocysteine): -0.0194
Log2(fold change) S-adenosyl-L-methioninamine ([3]; metabolite S-adenosyl-L-methioninamine): 0.0000
Log2(fold change) S-adenosyl-L-methionine ([3]; metabolite S-adenosyl-L-methionine): 0.0000
Log2(fold change) S-methyl-5'-thioadenosine ([3]; metabolite S-methyl-5'-thioadenosine): 0.0000
Log2(fold change) SD ([3]; metabolite SD): -0.4923
Log2(fold change) SDL ([3]; metabolite SDL): 0.0000
Log2(fold change) SID ([3]; metabolite SID): 0.0000
Log2(fold change) Sedoheptulose bisphosphate ([3]; metabolite Sedoheptulose bisphosphate): -0.3584
Log2(fold change) Thiamine pyrophosphate ([3]; metabolite Thiamine pyrophosphate): 0.0000
Log2(fold changes) UDP-D-glucose ([3]; metabolite UDP-D-glucose, log2 fold change): 0.1494
Log2(fold changes) UDP-D-glucuronate ([3]; metabolite UDP-D-glucuronate, log2 fold change): 0.0070
Log2(fold changes) UDP-N-acetyl-glucosamine ([3]; metabolite UDP-N-acetyl-glucosamine, log2 fold change): 0.1156
Log2(fold changes) UDP ([3]; metabolite UDP, log2 fold change): 0.2283
Log2(fold changes) UMP ([3]; metabolite UMP, log2 fold change): 0.2317
Log2(fold changes) UTP ([3]; metabolite UTP, log2 fold change): 0.2213
Log2(fold change) hydroxyphenylpyruvate ([3]; metabolite hydroxyphenylpyruvate): 0.0000
Log2(fold change) hydroxyproline/Aminolevulinate ([3]; metabolite hydroxyproline/Aminolevulinate): -0.0075
Log2(fold change) hypoxanthine ([3]; metabolite hypoxanthine): 0.1648
Log2(fold change) indole ([3]; metabolite indole): 0.3490
Log2(fold change) inosine ([3]; metabolite inosine): -0.0766
Log2(fold change) isoleucine ([3]; metabolite isoleucine): 0.0000
Log2(fold change) lactate ([3]; metabolite lactate): -0.2025
Log2(fold change) leucine ([3]; metabolite leucine): 0.0000
Log2(fold change) lysine ([3]; metabolite lysine): -0.5734
Log2(fold change) malate ([3]; metabolite malate): -0.3950
Log2(fold change) maleic acid ([3]; metabolite maleic acid): -0.3624
Log2(fold change) methionine ([3]; metabolite methionine): 0.0256
Log2(fold change) myo-inositol ([3]; metabolite myo-inositol): -0.1977
Log2(fold change) nicotinamide mononucleotide ([3]; metabolite nicotinamide mononucleotide): 0.0000
Log2(fold change) nicotinate ([3]; metabolite nicotinate): -0.1013
Log2(fold change) ornithine ([3]; metabolite ornithine): -0.1781
Log2(fold change) orotate ([3]; metabolite orotate): 0.2133
Log2(fold change) orotidine-5'-phosphate ([3]; metabolite orotidine-5'-phosphate): 0.1629
Log2(fold change) oxaloacetate ([3]; metabolite oxaloacetate): 0.0000
Log2(fold change) p-aminobenzoate ([3]; metabolite p-aminobenzoate): -0.0216
Log2(fold change) p-hydroxybenzoate ([3]; metabolite p-hydroxybenzoate): 0.3646
Log2(fold change) pantothenate ([3]; metabolite pantothenate): -0.2828
Log2(fold change) phenylalanine ([3]; metabolite phenylalanine): -0.1837
Log2(fold change) phenylpyruvate ([3]; metabolite phenylpyruvate): 0.0000
Log2(fold change) phosphoenolpyruvate ([3]; metabolite phosphoenolpyruvate): -0.3146
Log2(fold change) prephenate ([3]; metabolite prephenate): -0.3616
Log2(fold change) proline ([3]; metabolite proline): -0.1191
Log2(fold change) pyridoxine ([3]; metabolite pyridoxine): -0.0925
Log2(fold change) pyruvate ([3]; metabolite pyruvate): -0.4635
Log2(fold change) riboflavin ([3]; metabolite riboflavin): 0.1454
Log2(fold change) ribose ([3]; metabolite ribose): 0.2742
Log2(fold change) ribose-phosphate ([3]; metabolite ribose-phosphate): 0.0000
Log2(fold change) ribulose-5-phosphate ([3]; metabolite ribulose-5-phosphate): 0.0000
Log2(fold change) serine ([3]; metabolite serine): 0.1757
Log2(fold change) sn-glycerol-3-phosphate ([3]; metabolite sn-glycerol-3-phosphate): -0.3504
Log2(fold change) succinate/Methylmalonic acid ([3]; metabolite succinate/Methylmalonic acid): -0.0586
Log2(fold change) succinyl-CoA/methylmalonyl-CoA ([3]; metabolite succinyl-CoA/methylmalonyl-CoA): 0.0000
Log2(fold change) taurine ([3]; metabolite taurine): 0.0000
Log2(fold change) thiamine ([3]; metabolite thiamine): -0.0019
Log2(fold change) threonine/homoserine ([3]; metabolite threonine/homoserine): -0.0036
Log2(fold change) thymidine ([3]; metabolite thymidine): 0.0000
Log2(fold changes) thymine ([3]; metabolite thymine, log2 fold change): 0.0000
Log2(fold changes) trehalose-6-Phosphate ([3]; metabolite trehalose-6-Phosphate, log2 fold change): 0.0000
Log2(fold changes) tryptophan ([3]; metabolite tryptophan, log2 fold change): -0.0140
Log2(fold changes) tyrosine ([3]; metabolite tyrosine, log2 fold change): 0.0814
Log2(fold changes) uridine ([3]; metabolite uridine, log2 fold change): 0.2403
